Assay results taken from US12479850B2, “Compound having Axl and c-Met kinase inhibitory activity, preparation thereof and application thereof” (Shanghai Institute of Materia Medica, Chinese Academy of …, priority 2019, dated 2025).
pIC50: −log10 of the molar value.

How the values were obtained:
[1] = tested on: BaF3-TEL-AXL cells; experiment: BaF3-TEL-AXL cell proliferation assay (CCK-8); type: cell-based; settings: 72 hours, read-out: IC50 value on BaF3-TEL-AXL cell proliferation inhibition
From the text: 1. BaF3-TEL-AXL Cell Proliferation Effect Assay
TEL-AXL fusion protein in BaF3-TEL-AXL cells was expressed in the cytoplasm and was an Axl-dependent sensitive cell line.
The inhibitory effect of the compound on the proliferation of BaF3-TEL-AXL cells was detected by the CCK-8 Cell Counting Kit (Dojindo). The specific steps were as follows: the BaF3-TEL-AXL cells in the logarithmic growth phase were inoculated into the 96-well culture plate at a appropriate density, after being cultured overnight, different concentrations of compounds were added for 72 hours, and a solvent control group (negative control) was set. After the compound had acted on the cells for 72 hours, the effect of the compound on cell proliferation was detected by CCK-8 cell counting kit (Dojindo), 10 μL CCK-8 reagent was added to each well, placed in an incubator at 37° C. for 2-4 hours, and the full wavelength microplate reader SpectraMax 190 was used to read, and the measurement wavelength was 450 nm.
The inhibition rate of the compound on the growth of tumor cells was calculated by the following formula (%): Inhibition rate (%)=(OD of control well−OD of administration well)/OD of control well×100%

[2] = tested on: MKN45 cells; experiment: MKN45 cell proliferation assay (SRB); type: cell-based; settings: Homo sapiens, MKN-45, 72 hours, read-out: IC50 value of MKN45 cell proliferation inhibition
From the text: 2. MKN45 Cell Proliferation Effect Assay
MKN45 is a gastric cancer cell line. MET gene amplification leads to continuous activation of Met cell line, which is a c-Met-dependent tumor cell line.
The inhibitory effect of the compound on the proliferation of MKN45 cells was detected by sulforhodamine B (SRB) protein staining method. The specific steps were as follows: MKN45 cells in the logarithmic growth phase are inoculated into a 96-well culture plate at an appropriate density. After being cultured overnight, compounds of different concentrations were added for 72 hours. Three duplicate wells for each concentration, and a solvent control group (Negative control) were set. After the action was over, the culture solution was discarded, 10% (w/v) trichloroacetic acid (100 μL/well) was added, and fixed at 4° C. for 1 hour, then washed with distilled water for five times. After drying at room temperature, 100 μL of SRB solution was added to each well, incubated and dyed at room temperature for 15 min, washed off the unbound SRB with 1% glacial acetic acid. After drying at room temperature, 10 mM Tris solution was added to each well, and full wavelength microplate SpectraMax 190 was used to test OD value at the wavelength of 515 nm. […]

[3] = target: T1, Axl kinase domain recombinant protein (Homo sapiens, UniProt P30530); experiment: ELISA kinase activity assay, Axl
T1 sequence (P30530 536-807 limits assumed): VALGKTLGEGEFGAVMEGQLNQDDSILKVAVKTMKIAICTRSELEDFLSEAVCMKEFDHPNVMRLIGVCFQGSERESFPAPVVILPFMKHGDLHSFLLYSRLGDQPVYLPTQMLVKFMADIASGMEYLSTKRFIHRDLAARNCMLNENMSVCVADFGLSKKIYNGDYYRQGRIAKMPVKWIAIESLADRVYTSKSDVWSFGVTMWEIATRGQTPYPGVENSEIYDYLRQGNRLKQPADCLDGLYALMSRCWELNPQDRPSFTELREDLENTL

[4] = target: c-Met kinase domain recombinant protein (Homo sapiens, UniProt P08581); experiment: ELISA kinase activity assay, c-Met
c-Met kinase domain recombinant protein, sequence (P08581 1078-1345 limits assumed): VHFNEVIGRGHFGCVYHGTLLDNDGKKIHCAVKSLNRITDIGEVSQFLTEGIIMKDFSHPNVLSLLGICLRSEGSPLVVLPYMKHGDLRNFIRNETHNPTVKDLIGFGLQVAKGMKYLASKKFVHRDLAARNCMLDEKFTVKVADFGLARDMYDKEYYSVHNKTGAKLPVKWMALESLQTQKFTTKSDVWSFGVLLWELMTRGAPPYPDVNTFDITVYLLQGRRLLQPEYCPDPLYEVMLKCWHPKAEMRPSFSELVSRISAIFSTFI

pIC50 [1] | pIC50 [2] | pIC50 [3] | pIC50 [4] | SMILES
> 8.00 | > 7.00 | > 8.00 | > 8.00 | CC(C)n1cc(C(=O)Nc2ccc(Oc3ccnc4[nH]ccc34)c(F)c2)c(=O)n(-c2ccc(F)cc2)c1=O [No. 41, N-(4-((1H-pyrrolo[2,3-b]pyridin-4-yl)oxy)-3-fluorophenyl)-3-(4-fluorophenyl)-1-isopropyl-2,4-dioxo-1,2,3,4-tetrahydropyrimidin-5-carboxamide]
> 8.00 | > 7.00 | > 8.00 | 7.00 to 8.00 | CC(C)n1cc(C(=O)Nc2ccc(Oc3cc4cnn(C)c4cc3-c3cn[nH]c3)c(F)c2)c(=O)n(-c2ccc(F)cc2)c1=O [No. 50, N-(3-fluoro-4-((1-methyl-6-(1H-pyrazol-4-yl)-1H-indazol-5-yl)oxy)phenyl)-3-(4-fluorophenyl)-1-isopropyl-2,4-dioxo-1,2,3,4-tetrahydropyrimidin-5-carboxamide]
 |  | 7.00 to 8.00 | 7.00 to 8.00 | COCCCn1cc(C(=O)Nc2ccc(Oc3ccnc(-c4cnn(C)c4)c3)c(F)c2)c(=O)n(-c2ccc(F)cc2)c1=O [No. 55, N-(3-fluoro-4-((2-(1-methyl-1H-pyrazol-4-yl)pyridin-4-yl)oxy)phenyl)-3-(4-fluorophenyl)-1-(3-methoxypropyl)-2,4-dioxo-1,2,3,4-tetrahydropyrimidin-5-carboxamide]
